{"source": "paper PMC3135787", "about": "(Antiviral research, 2011)", "key": {"[1]": {"tested_on": "genotype 1a H77 subgenomic replicon", "experiment": "HCV replicon assay, genotype 1a H77", "type": "cell-based", "details": "GT1a_H77 replicon, four days"}, "[2]": {"target": "human carboxylesterase 1 (CES-1) (Homo sapiens, UniProt P23141)", "sequence (P23141 18-567)": "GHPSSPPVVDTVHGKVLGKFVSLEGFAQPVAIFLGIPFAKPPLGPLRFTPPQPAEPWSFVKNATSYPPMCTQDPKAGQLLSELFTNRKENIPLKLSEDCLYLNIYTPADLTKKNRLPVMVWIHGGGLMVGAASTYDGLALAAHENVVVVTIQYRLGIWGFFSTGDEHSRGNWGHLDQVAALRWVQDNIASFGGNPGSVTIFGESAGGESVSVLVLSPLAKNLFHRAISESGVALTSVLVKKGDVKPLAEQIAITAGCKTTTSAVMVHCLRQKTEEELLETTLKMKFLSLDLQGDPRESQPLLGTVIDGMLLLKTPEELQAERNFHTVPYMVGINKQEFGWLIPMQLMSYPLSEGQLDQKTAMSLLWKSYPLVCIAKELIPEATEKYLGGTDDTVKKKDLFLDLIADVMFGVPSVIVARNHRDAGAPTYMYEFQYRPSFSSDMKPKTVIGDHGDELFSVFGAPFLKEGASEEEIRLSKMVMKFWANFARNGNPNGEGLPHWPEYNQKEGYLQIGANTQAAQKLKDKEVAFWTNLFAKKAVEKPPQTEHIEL", "experiment": "Hydrolysis of the carboxyl ester by carboxylesterase 1", "type": "biochemical"}, "[3]": {"tested_on": "HCV 2a JFH-1 infectious virus", "experiment": "Infectious virus assay, genotype 2a", "type": "cell-based", "details": "GT2a_JFH-1 infectious virus, En5-3 cells, three days"}, "[4]": {"target": "human cathepsin A (Cat A) (Homo sapiens, UniProt P10619)", "sequence (P10619 29-326 limits assumed)": "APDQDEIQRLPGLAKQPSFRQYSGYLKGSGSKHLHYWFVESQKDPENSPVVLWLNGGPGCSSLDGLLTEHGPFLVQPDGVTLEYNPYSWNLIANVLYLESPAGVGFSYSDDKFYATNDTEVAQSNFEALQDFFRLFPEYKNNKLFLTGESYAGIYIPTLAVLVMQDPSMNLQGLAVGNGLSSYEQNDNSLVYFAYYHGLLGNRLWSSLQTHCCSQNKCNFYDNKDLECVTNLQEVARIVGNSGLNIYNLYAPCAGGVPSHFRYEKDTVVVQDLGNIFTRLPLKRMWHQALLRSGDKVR", "sequence (P10619 327-480 limits assumed)": "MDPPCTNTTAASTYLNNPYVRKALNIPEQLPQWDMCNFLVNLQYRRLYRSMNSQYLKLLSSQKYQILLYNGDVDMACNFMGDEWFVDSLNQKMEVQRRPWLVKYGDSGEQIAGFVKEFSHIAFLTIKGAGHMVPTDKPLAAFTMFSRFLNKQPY", "experiment": "Hydrolysis of the carboxyl ester by cathepsin A", "type": "biochemical", "details": "CatA, 100 μM substrate, 37 °C"}, "[5]": {"tested_on": "genotype 1b replicon (Con1 strain)", "experiment": "HCV replicon assay, genotype 1b Con1", "type": "cell-based", "details": "GT1b_Con1 replicon, four days"}, "[6]": {"tested_on": "HepG2 cells", "experiment": "Lactic acid production, HepG2", "details": "7 days, normalised to rDNA"}, "[7]": {"tested_on": "HCV 1a H77Sv2 infectious virus", "experiment": "Infectious virus assay, genotype 1a", "type": "cell-based", "details": "GT1a_H77 infectious virus, En5-3 cells, three days"}, "[8]": {"tested_on": "primary human hepatocytes", "experiment": "Metabolism of [3H]-PSI-353661 in primary human hepatocytes", "type": "in vitro ADME", "details": "5 μM [3H]-PSI-353661, up to 24 hours"}, "[9]": {"tested_on": "CEM cells", "experiment": "Lactic acid production, CEM", "details": "7 days, normalised to rDNA"}, "[10]": {"tested_on": "ET replicon with NS5B P495L", "experiment": "microbe, parasite or virus in culture", "type": "cell-based, HCV"}, "[11]": {"tested_on": "HepG2 cells", "experiment": "Mitochondrial COXII DNA and ribosomal DNA by real time PCR, HepG2", "type": "cell-based, human", "details": "HepG2 cells; for CC90: fourteen days"}, "[12]": {"tested_on": "erythroid progenitor cells (CFU-E and BFU-E)", "experiment": "Human bone marrow stem cell toxicity, 14-day colony formation, erythroid", "type": "cell-based", "details": "read-out: IC50, erythroid progenitor cells (CFU-E and BFU-E); 14-day colony formation assay"}, "[13]": {"tested_on": "HepG2 cells", "experiment": "8-day MTS cytotoxicity assay, HepG2", "type": "cell-based, human", "details": "HepG2, eight days, MTS"}, "[14]": {"tested_on": "ET replicon with NS5B M414T", "experiment": "microbe, parasite or virus in culture", "type": "cell-based, HCV"}, "[15]": {"tested_on": "Huh7 cells", "experiment": "8-day MTS cytotoxicity assay, Huh7", "type": "cell-based, human", "details": "Huh7, eight days, MTS"}, "[16]": {"tested_on": "genotype 1b ET replicon, wild type", "type": "cell-based, HCV", "details": "read-out: EC90 WT replicon"}, "[17]": {"tested_on": "ET replicon with NS5B M423T", "type": "cell-based, HCV"}, "[18]": {"tested_on": "ET replicon with NS5B C316Y", "experiment": "microbe, parasite or virus in culture", "type": "cell-based, HCV"}, "[19]": {"tested_on": "genotype 2a J6/JFH-1 subgenomic replicon", "experiment": "HCV replicon assay, genotype 2a J6/JFH-1", "type": "cell-based", "details": "GT2a_JFH-1 replicon, four days"}, "[20]": {"tested_on": "Clone A wild type replicon", "experiment": "Cross resistance: Clone A wild type replicon, RT-PCR", "type": "cell-based, HCV", "details": "read-out: EC90 WT replicon; Clone A wild type replicon, RT-PCR assay"}, "[21]": {"tested_on": "BxPC3 cells", "experiment": "8-day MTS cytotoxicity assay, BxPC3", "type": "cell-based, human", "details": "BxPC3, eight days, MTS"}, "[22]": {"target": "T1, recombinant human ADAL1 (Homo sapiens, UniProt Q6DHV7)", "T1 sequence (Q6DHV7 1-355)": "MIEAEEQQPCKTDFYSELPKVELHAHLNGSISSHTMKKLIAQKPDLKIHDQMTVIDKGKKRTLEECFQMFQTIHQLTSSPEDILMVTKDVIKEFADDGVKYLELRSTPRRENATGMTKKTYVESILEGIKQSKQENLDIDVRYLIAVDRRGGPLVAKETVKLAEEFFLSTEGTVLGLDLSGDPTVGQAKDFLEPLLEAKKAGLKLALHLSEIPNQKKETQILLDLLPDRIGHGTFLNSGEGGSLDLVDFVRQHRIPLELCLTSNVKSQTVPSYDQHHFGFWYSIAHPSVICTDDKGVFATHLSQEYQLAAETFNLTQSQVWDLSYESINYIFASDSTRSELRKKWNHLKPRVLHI", "experiment": "ADAL1-mediated demethylation assay", "type": "biochemical", "details": "ADAL1, pH 6.7, 37°C"}, "[23]": {"tested_on": "myeloid progenitor cells (CFU-GM)", "experiment": "Human bone marrow stem cell toxicity, 14-day colony formation, myeloid", "type": "cell-based", "details": "read-out: IC50, myeloid progenitor cells (CFU-GM); 14-day colony formation assay"}, "[24]": {"tested_on": "ET replicon with NS5B S96T/N142T", "experiment": "microbe, parasite or virus in culture", "type": "cell-based, HCV"}, "[25]": {"tested_on": "CEM cells", "experiment": "8-day MTS cytotoxicity assay, CEM", "type": "cell-based, human", "details": "CEM, eight days, MTS"}, "[26]": {"tested_on": "CEM cells", "experiment": "Mitochondrial COXII DNA and ribosomal DNA by real time PCR, CEM", "type": "cell-based, human", "details": "CEM cells; for CC90: fourteen days"}, "[27]": {"tested_on": "Clone A replicon with NS5B S282T", "experiment": "microbe, parasite or virus in culture", "type": "cell-based, HCV"}, "[28]": {"tested_on": "ET-Lunet replicon cells", "experiment": "HCV replicon clearance and rebound study", "type": "cell-based", "details": "for clearance of replicon RNA (colony formation after 14 days G418 without compound): 14 days treatment"}}, "note": "Several values for one entry are separate records, joined by “and”; a condition that tells them apart may be missing. Identical values can stand only once. Like-named read-outs stand apart in the source and are kept apart here.", "data": [{"smiles": "COc1nc(N)nc2c1ncn2[C@@H]1O[C@H](COP(=O)(N[C@@H](C)C(=O)OC(C)C)Oc2ccccc2)[C@@H](O)[C@@]1(C)F", "note": "(stereo partly drawn) [PSI-353661, (S)-2-{(S)-[(1R,4R,5R)-5-(2-amino-6-methoxy-purin-9-yl)-4-(R)-fluoro-3-hydroxy-4-methyl-tetrahydro-furan-2-ylmethoxy]-phenoxy-phosphorylamino}-propionic acid isopropyl ester]", "values": [{"measurement": "EC50", "setting": "[1]", "result": "4.5 ± 0.7", "unit": "nM"}, {"measurement": "EC90", "setting": "[1]", "result": "10.5 ± 0.7", "unit": "nM"}, {"measurement": "rate of hydrolysis (specific activity)", "setting": "[2]; CES1, 100 μM substrate, 37 °C, not time-dependent", "result": "~0.034", "unit": "µmol/min/mg"}, {"measurement": "fraction converted to product PSI-353131", "setting": "[2]; incubation with CES1", "result": "~10", "unit": "%"}, {"measurement": "EC50", "setting": "[3]", "result": 1.6, "unit": "nM"}, {"measurement": "EC90", "setting": "[3]", "result": 11.2, "unit": "nM"}, {"measurement": "specific activity of hydrolysis to PSI-353131", "setting": "[4]", "result": 0.80, "unit": "µmol/min/mg"}, {"measurement": "EC50", "setting": "[5]", "result": "3 ± 1.4", "unit": "nM"}, {"measurement": "EC90", "setting": "[5]", "result": "8.5 ± 0.7", "unit": "nM"}, {"measurement": "Lactic acid (Fold change from untreated cells)", "setting": "[6]; 0.1 μM", "result": "1.2 ± 0.35"}, {"measurement": "Lactic acid (Fold change from untreated cells)", "setting": "[6]; 1.0 μM", "result": "1.2 ± 0.29"}, {"measurement": "Lactic acid (Fold change from untreated cells)", "setting": "[6]; 10 μM", "result": "1.1 ± 0.06"}, {"measurement": "Lactic acid (Fold change from untreated cells)", "setting": "[6]; 50 μM", "result": "1.3 ± 0.31"}, {"measurement": "EC50", "setting": "[7]", "result": 3.5, "unit": "nM"}, {"measurement": "EC90", "setting": "[7]", "result": 8.6, "unit": "nM"}, {"measurement": "intracellular level of parent compound", "setting": "[8]", "result": "undetectable"}, {"measurement": "Lactic acid (Fold change from untreated cells)", "setting": "[9]; 0.1 μM", "result": "1.4 ± 0.36"}, {"measurement": "Lactic acid (Fold change from untreated cells)", "setting": "[9]; 1.0 μM", "result": "1.4 ± 0.10"}, {"measurement": "Lactic acid (Fold change from untreated cells)", "setting": "[9]; 10 μM", "result": "1.4 ± 0.31"}, {"measurement": "Lactic acid (Fold change from untreated cells)", "setting": "[9]; 50 μM", "result": "1.3 ± 0.40"}, {"measurement": "EC90 fold change", "setting": "[10]", "result": 1.0}, {"measurement": "EC90", "setting": "[10]; read-out: EC90 Mutant replicon, P495L, luciferase-based assay", "result": "12 ± 0.34", "unit": "nM"}, {"measurement": "effect on mitochondrial DNA content", "setting": "[11]; up to 100 μM, 14 days", "result": "did not affect mitochondrial DNA content"}, {"measurement": "CC90", "setting": "[11]; read-out: CC90 mtDNA", "result": "> 100000", "unit": "nM"}, {"measurement": "CC90", "setting": "[11]; read-out: CC90 rDNA", "result": "> 100000", "unit": "nM"}, {"measurement": "IC50", "setting": "[12]", "result": "> 50000", "unit": "nM"}, {"measurement": "CC50", "setting": "[13]", "result": "> 100000", "unit": "nM"}, {"measurement": "EC90 fold change", "setting": "[14]", "result": 1.0}, {"measurement": "EC90", "setting": "[14]; read-out: EC90 Mutant replicon, M414T, luciferase-based assay", "result": "12 ± 2.2", "unit": "nM"}, {"measurement": "CC50", "setting": "[15]", "result": "80000 ± 6000", "unit": "nM"}, {"measurement": "EC90", "setting": "[16]", "result": "12 ± 4", "unit": "nM"}, {"measurement": "EC90 fold change", "setting": "[17]", "result": 0.8}, {"measurement": "EC90", "setting": "[17]; read-out: EC90 Mutant replicon, M423T, luciferase-based assay", "result": "9.7 ± 1.9", "unit": "nM"}, {"measurement": "EC90 fold change", "setting": "[18]", "result": 0.8}, {"measurement": "EC90", "setting": "[18]; read-out: EC90 Mutant replicon, C316Y, luciferase-based assay", "result": "9.8 ± 3.5", "unit": "nM"}, {"measurement": "EC50", "setting": "[19]", "result": "6.5 ± 2.1", "unit": "nM"}, {"measurement": "EC90", "setting": "[19]", "result": "14 ± 1.4", "unit": "nM"}, {"measurement": "EC90", "setting": "[20]", "result": "9 nM and 9.3 nM"}, {"measurement": "CC50", "setting": "[21]", "result": "> 100000", "unit": "nM"}, {"measurement": "Km", "setting": "[22]", "result": "No activity"}, {"measurement": "kcat", "setting": "[22]", "result": "No activity"}, {"measurement": "kcat / Km", "setting": "[22]", "result": "No activity"}, {"measurement": "IC50", "setting": "[23]", "result": "45000 ± 2000", "unit": "nM"}, {"measurement": "EC90 fold change", "setting": "[24]", "result": 0.7}, {"measurement": "EC90", "setting": "[24]; read-out: EC90 Mutant replicon, S96T/N142T, luciferase-based assay", "result": "8.7 ± 3.7", "unit": "nM"}, {"measurement": "CC50", "setting": "[25]", "result": "> 100000", "unit": "nM"}, {"measurement": "effect on mitochondrial DNA content", "setting": "[26]; up to 100 μM, 14 days", "result": "did not affect mitochondrial DNA content"}, {"measurement": "CC90", "setting": "[26]; read-out: CC90 mtDNA", "result": "> 100000", "unit": "nM"}, {"measurement": "CC90", "setting": "[26]; read-out: CC90 rDNA", "result": "> 100000", "unit": "nM"}, {"measurement": "EC90 fold change", "setting": "[27]", "result": 1.5}, {"measurement": "EC90", "setting": "[27]; read-out: EC90 Mutant replicon, S282T, RT-PCR assay", "result": "14 ± 2.6", "unit": "nM"}, {"measurement": "reduction of HCV replicon RNA", "setting": "[28]; 8 nM (2× EC50), end of first 14-days, no G418", "result": 1, "unit": "log"}, {"measurement": "decrease in HCV replicon RNA", "setting": "[28]; 20 nM dose, end of first 14-days, no G418", "result": "> 4", "unit": "log"}, {"measurement": "clearance of replicon RNA (colony formation after 14 days G418 without compound)", "setting": "[28]; 20 nM", "result": "partial clearance"}, {"measurement": "HCV RNA level", "setting": "[28]; 40 and 80 nM doses, by day 10", "result": "undetectable"}, {"measurement": "clearance of replicon RNA (colony formation after 14 days G418 without compound)", "setting": "[28]; 40 and 80 nM", "result": "completely eliminated the replicon"}, {"measurement": "EC50", "setting": "[28]; read-out: EC50 value, ET-Lunet replicon cells, value used to set clearance doses", "result": 4, "unit": "nM"}]}]}
